Data as given in patent US20250019361A1, “(3-QUINOLYL)-QUINAZOLINE” (BASF SE, priority 2021, published 2025).

These compounds were tested on Septoria tritici (assay: Microtest: activity against leaf blotch on wheat caused by Septoria tritici). Settings: 8 ppm.
Type: cell-based
Procedure: The active compounds were formulated separately as a stock solution having a concentration of 10000 ppm in dimethyl sulfoxide.
The stock solutions were mixed according to the ratio, pipetted onto a micro titer plate (MTP) and diluted with water to the stated concentrations.
A spore suspension of Septoria tritici in an aqueous biomalt or yeast-bactopeptone-glycerine or DOB solution was then added.
The measured parameters were compared to the growth of the active compound-free control variant (100%) and the fungus-free blank value to determine the relative growth in % of the pathogens in the respective active compounds.

SMILES | growth of the pathogen (relative growth in %, control 100%) [%]
CCN1c2c(F)cccc2C(c2cnc3c(F)cccc3c2)=NC1(C)C [Ex-10] | 19
CC1(C)N=C(c2cnc3c(F)cccc3c2)c2ccccc2N1C#N [Ex-8] | 19
CCCN1c2c(F)cccc2C(c2cnc3c(F)cccc3c2)=NC1(C)C [Ex-11] | 19
N#CN1c2ccccc2C(c2cnc3c(F)cccc3c2)=NC12CCCC2 [Ex-7] | 19
CCCCN1c2c(F)cccc2C(c2cnc3c(F)cccc3c2)=NC1(C)C [Ex-9] | 19
